Tested on: 994946-033-R-J1-PDC complex spheroid viability
Assay: Anticancer human tumor 994946-033-R-J1-PDC patient-derived melanoma cell line growth inhibition [POLQ]
Settings: for IC50: curve of first compound; for viability, T/C: stronger effect = lower value
Outline: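 Complex spheroid viability model combining PDC tumour cells with endothelial (HUVEC) and MSC stromal cells. Novobiocin, ART-558 or RP6685 were tested singly and in combination with standard and investigational anticancer drugs. Each was titrated in half-log steps from near clinical Cmax, or from 10 microM where Cmax was unknown.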

[1] = second compound 0.0316 µM, first compound 0.0316 µM
[2] = second compound 0.0316 µM, first compound 0.1 µM
[3] = second compound 0.0316 µM, first compound 0.316 µM
[4] = second compound 0.0316 µM, first compound 1 µM
[5] = second compound 0.0316 µM, first compound 3.16 µM
[6] = second compound 0.0316 µM, first compound 10 µM
[7] = second compound 0.1 µM, first compound 0.0316 µM
[8] = second compound 0.1 µM, first compound 0.1 µM
[9] = second compound 0.1 µM, first compound 0.316 µM
[10] = second compound 0.1 µM, first compound 1 µM
[11] = second compound 0.1 µM, first compound 3.16 µM
[12] = second compound 0.1 µM, first compound 10 µM
[13] = second compound 0.316 µM, first compound 0.0316 µM
[14] = second compound 0.316 µM, first compound 0.1 µM
[15] = second compound 0.316 µM, first compound 0.316 µM
[16] = second compound 0.316 µM, first compound 1 µM
[17] = second compound 0.316 µM, first compound 3.16 µM
[18] = second compound 0.316 µM, first compound 10 µM
[19] = second compound 1 µM, first compound 0.0316 µM
[20] = second compound 1 µM, first compound 0.1 µM
[21] = second compound 1 µM, first compound 0.316 µM
[22] = second compound 1 µM, first compound 1 µM
[23] = second compound 1 µM, first compound 3.16 µM
[24] = second compound 1 µM, first compound 10 µM
[25] = second compound 3.16 µM, first compound 0.0316 µM
[26] = second compound 3.16 µM, first compound 0.1 µM
[27] = second compound 3.16 µM, first compound 0.316 µM
[28] = second compound 3.16 µM, first compound 1 µM
[29] = second compound 3.16 µM, first compound 3.16 µM
[30] = second compound 3.16 µM, first compound 10 µM
[31] = second compound 10 µM, first compound 0.0316 µM
[32] = second compound 10 µM, first compound 0.1 µM
[33] = second compound 10 µM, first compound 0.316 µM
[34] = second compound 10 µM, first compound 1 µM
[35] = second compound 10 µM, first compound 3.16 µM
[36] = second compound 10 µM, first compound 10 µM
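Further: spheroids exposed to drugs for 7 days.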
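Wherever viability, T/C is given: 100% = DMSO vehicle treated spheroids.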

Structure (SMILES): COc1cccc2c1C(=O)c1c(O)c3c(c(O)c1C2=O)CC(O)(C(=O)CO)CC3OC1CC(N)C(O)C(C)O1 (stereo unspecified) + Nc1ccc(C#CCN(C(=O)Cc2ncc(C(F)(F)F)cc2C(F)(F)F)c2ccc(F)cc2)nn1
- IC50 (second compound 0.0316 µM): < 0.0316 µM
- IC50 (second compound 0.1 µM): < 0.0316 µM
- IC50 (second compound 0.316 µM): < 0.0316 µM
- IC50 (second compound 1 µM): < 0.0316 µM
- IC50 (second compound 3.16 µM): < 0.0316 µM
- IC50 (second compound 10 µM): < 0.0316 µM
- viability, T/C [1]: 39.1%
- viability, T/C [2]: 8.96%
- viability, T/C [3]: 4.51%
- viability, T/C [4]: 0.95%
- viability, T/C [5]: 0.91%
- viability, T/C [6]: 1.45%
- viability, T/C [7]: 47.5%
- viability, T/C [8]: 11.3%
- viability, T/C [9]: 7.5%
- viability, T/C [10]: 1.92%
- viability, T/C [11]: 1.44%
- viability, T/C [12]: 1.04%
- viability, T/C [13]: 38%
- viability, T/C [14]: 13.6%
- viability, T/C [15]: 5.83%
- viability, T/C [16]: 0.57%
- viability, T/C [17]: 1.8%
- viability, T/C [18]: 1.29%
- viability, T/C [19]: 47.9%
- viability, T/C [20]: 10%
- viability, T/C [21]: 4.77%
- viability, T/C [22]: 0.51%
- viability, T/C [23]: 1.35%
- viability, T/C [24]: 0.99%
- viability, T/C [25]: 32.4%
- viability, T/C [26]: 13.9%
- viability, T/C [27]: 4.86%
- viability, T/C [28]: 1.22%
- viability, T/C [29]: 1.11%
- viability, T/C [30]: 1%
- viability, T/C [31]: 35.3%
- viability, T/C [32]: 14.7%
- viability, T/C [33]: 3.59%
- viability, T/C [34]: 1.41%
- viability, T/C [35]: 0.94%
- viability, T/C [36]: 1.07%

Structure (SMILES): O=C(c1cc(Cc2n[nH]c(=O)c3ccccc23)ccc1F)N1CCN(C(=O)C2CC2)CC1 + Nc1ccc(C#CCN(C(=O)Cc2ncc(C(F)(F)F)cc2C(F)(F)F)c2ccc(F)cc2)nn1
- IC50 (second compound 0.0316 µM): 6.71 µM
- IC50 (second compound 0.1 µM): 6.45 µM
- IC50 (second compound 0.316 µM): 4.09 µM
- IC50 (second compound 1 µM): 5.26 µM
- IC50 (second compound 3.16 µM): 3.82 µM
- IC50 (second compound 10 µM): 7 µM
- viability, T/C [1]: 116%
- viability, T/C [2]: 88.8%
- viability, T/C [3]: 101%
- viability, T/C [4]: 72.6%
- viability, T/C [5]: 76.6%
- viability, T/C [6]: 37.3%
- viability, T/C [7]: 61.7%
- viability, T/C [8]: 113%
- viability, T/C [9]: 70.5%
- viability, T/C [10]: 78.6%
- viability, T/C [11]: 83.5%
- viability, T/C [12]: 30.6%
- viability, T/C [13]: 101%
- viability, T/C [14]: 84.9%
- viability, T/C [15]: 84%
- viability, T/C [16]: 55.8%
- viability, T/C [17]: 70.8%
- viability, T/C [18]: 29.6%
- viability, T/C [19]: 78.9%
- viability, T/C [20]: 111%
- viability, T/C [21]: 66%
- viability, T/C [22]: 92.8%
- viability, T/C [23]: 55.9%
- viability, T/C [24]: 42.6%
- viability, T/C [25]: 94.8%
- viability, T/C [26]: 80.3%
- viability, T/C [27]: 77.8%
- viability, T/C [28]: 58.8%
- viability, T/C [29]: 57.9%
- viability, T/C [30]: 37.1%
- viability, T/C [31]: 66.4%
- viability, T/C [32]: 87.3%
- viability, T/C [33]: 70.3%
- viability, T/C [34]: 92.3%
- viability, T/C [35]: 80.1%
- viability, T/C [36]: 36.8%

Structure (SMILES): O=c1[nH]cc(F)c(=O)[nH]1 + Cc1cccc(N(C)C(=O)C2C(O)CCN2c2nc(C)cc(C(F)(F)F)c2C#N)c1
- IC50 (second compound 0.0316 µM): 4.63 µM
- IC50 (second compound 0.1 µM): 2.49 µM
- IC50 (second compound 0.316 µM): 2.29 µM
- IC50 (second compound 1 µM): > 10 µM
- IC50 (second compound 3.16 µM): 1.46 µM
- IC50 (second compound 10 µM): 10 µM
- viability, T/C [1]: 97.5%
- viability, T/C [2]: 91.7%
- viability, T/C [3]: 63.8%
- viability, T/C [4]: 71.5%
- viability, T/C [5]: 48.6%
- viability, T/C [6]: 45.2%
- viability, T/C [7]: 91.6%
- viability, T/C [8]: 106%
- viability, T/C [9]: 101%
- viability, T/C [10]: 69.1%
- viability, T/C [11]: 49.4%
- viability, T/C [12]: 36.3%
- viability, T/C [13]: 85.5%
- viability, T/C [14]: 78.7%
- viability, T/C [15]: 89.8%
- viability, T/C [16]: 62.4%
- viability, T/C [17]: 45.6%
- viability, T/C [18]: 44.6%
- viability, T/C [19]: 95%
- viability, T/C [20]: 63.2%
- viability, T/C [21]: 63%
- viability, T/C [22]: 56.8%
- viability, T/C [23]: 52.3%
- viability, T/C [24]: 47.8%
- viability, T/C [25]: 99.3%
- viability, T/C [26]: 95%
- viability, T/C [27]: 66%
- viability, T/C [28]: 55.2%
- viability, T/C [29]: 45.3%
- viability, T/C [30]: 47.3%
- viability, T/C [31]: 97.1%
- viability, T/C [32]: 103%
- viability, T/C [33]: 52.7%
- viability, T/C [34]: 58.5%
- viability, T/C [35]: 49.7%
- viability, T/C [36]: 43%
